This test addresses T1, DrOTOP1 L205W (Danio rerio, UniProt Q7ZWK8, L205W).
T1 construct: A previously generated codon-optimized full-length DrOTOP1[8]; (UniProt: Q7ZWK8) construct; expressed in transfected cells; host or cells: HEK-293 (CRL-1573, ATCC)
T1 sequence (Q7ZWK8 1-586 L205W): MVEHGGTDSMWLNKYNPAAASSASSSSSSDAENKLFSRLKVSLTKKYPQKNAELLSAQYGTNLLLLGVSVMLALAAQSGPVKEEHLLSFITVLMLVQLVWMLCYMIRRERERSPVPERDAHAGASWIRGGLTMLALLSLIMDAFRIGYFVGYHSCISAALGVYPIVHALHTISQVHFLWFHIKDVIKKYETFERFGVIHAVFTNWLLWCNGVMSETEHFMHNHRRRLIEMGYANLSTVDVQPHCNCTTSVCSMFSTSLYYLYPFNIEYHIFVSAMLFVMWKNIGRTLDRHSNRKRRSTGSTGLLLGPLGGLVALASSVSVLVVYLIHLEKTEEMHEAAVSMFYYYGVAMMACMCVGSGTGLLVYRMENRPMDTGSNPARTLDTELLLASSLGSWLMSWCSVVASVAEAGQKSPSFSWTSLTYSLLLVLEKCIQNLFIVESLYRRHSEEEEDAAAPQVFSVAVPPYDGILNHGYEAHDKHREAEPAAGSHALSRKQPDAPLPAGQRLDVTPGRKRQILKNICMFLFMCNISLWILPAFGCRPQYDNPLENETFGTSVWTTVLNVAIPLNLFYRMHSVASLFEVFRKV
Description: Whole-cell patch-clamp, inhibition of acid-evoked currents, DrOTOP1 L205W. The settings on record: single cells or mean; for Inhibition of currents: 10 µM. Format: cell-based, zebrafish (Danio rerio). An excerpt:
To functionally test the significance of the two binding sites identified by cryo-EM, we generated point mutations of DrOTOP1 using the binding poses and conformational changes observed in DrOTOP1_C2.2 to guide our mutations. As per the binding pose that best fits our cryo-EM density, C2.2 forms the following interactions in the outer site: hydrophobic packing against many non-polar residues W126, G130, M133, L134, F271, F570, and M573, and π-stacking with W532 (Fig. 5A). In addition, C2.2 could potentially form H-bonds with E267, if the sidechain is protonated or a water bridge is present, and with H574 if it moves closer (Fig. 5A). Likewise, C2.36 presents a heterocyclic nitrogen that can potentially form a H-bond with E267, similarly, provided a protonation or water bridge is present (Fig. 5B). In addition, C2.36 forms a T-shaped π-stacking interaction with H574, whose sidechain has rotated 90 degrees (compared to DrOTOP1_apo), presumably to accommodate the interaction (Fig. 5B). Considering other inhibitors discovered from the second round of screening, many contain functional groups like the carbonyl groups of Group 1 molecules and the heterocyclic nitrogen atoms of Group 2 molecules (Supplementary Fig. 3E), that can potentially form similar H-bonds with E267 as C2.2 and C2.36, assuming the binding modes are similar. In the central site, C2.2 binds with the following interactions: hydrophobic packing with residues V201, F271, A274, V278, and A388, π-stacking with F277, and H-bonding with E384 (Fig. 5C).
We next tested mutations of the central site (L205W, A274W, F277A, E384A L385W, A388W). V201W and S389W, two additional central site mutations, were excluded from the study due to complete loss of channel activity. […]
Whole-cell patch-clamp recording was performed as previously described[6],[22],[25]. Recordings were made with an Axopatch 200B amplifier, digitized with a Digidata 1322a 16-bit data acquisition system, acquired with pClamp 8.2 and analyzed with Clampfit 10 (Molecular Devices). […]

Structures are written as SMILES. Several values for one entry are separate records, joined by “and”; a condition that tells them apart may be missing. Equal values may be shown once.

`C=C(C)COc1ccccc1NC(=O)c1nc[nH]c1C` [C2.2] showed an inhibition at 10 µM of 64.2%. Where the note is “mean”, this compound showed an Inhibition of currents of 69.03%. Besides, for the setting “single cells”, the Inhibition of currents was 76.6896% and 67.1049% and 68.1116% and 69.0311%.

For the origin of these results see publication PMC12549899 (Nature Communications, 2025).
